Consider 19 compounds from patent US5080904A, “Liposome composition and its production” (Takeda Chemical Industries, Ltd., priority 1989, dated 1992).

Assay in one series: not given
Particulars: Biochemica et Biophysica Acta, 859, 246-256 (1986); cited from earlier work.
Regarding sulfatide, the “phase transition temperature of sulfatide, first value” is 34.8 °C and the “phase transition temperature of sulfatide, second value” was 47.3 °C.

Another series is described as follows: Phase transition temperature of the lipid. The format is physicochemical.
Conditions: not given
Regarding `CCCCCCCCCCCCCC(=O)OCC(COP(=O)(O)OCC(N)C(=O)O)OC(=O)CCCCCCCCCCCCC` (centres unmarked) [DMPS, dimyristoylphosphatidylserine], the “phase transition temperature (found value) of phospholipid” value amounted to 38 °C. Regarding `CCCCCCCCCCCCCC(=O)OCC(COP(=O)(O)OCC(O)CO)OC(=O)CCCCCCCCCCCCC` (centres unmarked) [DMPG, dimyristoylphosphatidylglycerol], the “phase transition temperature (found value) of phospholipid” value worked out at 23 °C. Same read-out and setting: as for `CCCCCCCCCCCCCCCCCC(=O)OC[C@H](COP(=O)([O-])OCC[N+](C)(C)C)OC(=O)CCCCCCCCCCCCCCC` [SPPC, stearoylpalmitoylphosphatidylcholine], the figure is 44.0 °C; as for `CCCCCCCCCCCCCCCCCC(=O)OCC(COP(=O)(O)OCC(N)C(=O)O)OC(=O)CCCCCCCCCCCCCCCCC` (centres unmarked) [DSPS, distearoylphosphatidylserine], “over 50 °C”. On to `CCCCCCCCCCCCCCCCCC(=O)OCC(COP(=O)(O)OCCN)OC(=O)CCCCCCCCCCCCCCCCC` (centres unmarked) [DSPE, disteraroylphosphatidylethanolamine], for which the “phase transition temperature (found value) of phospholipid” value is “over 60 °C”. For the compound “myristoylpalmitoylphosphatidylcholine [MPPC]”, the “phase transition temperature (found value) of phospholipid” value turned out to be 35.3 °C. As for `CCCCCCCCCCCCCC(=O)OC[C@H](COP(=O)([O-])OCC[N+](C)(C)C)OC(=O)CCCCCCCCCCCCC` [DMPC, dimyristoylphosphatidylcholine], the “phase transition temperature (found value) of phospholipid” value was 23.9 °C. On to `CCCCCCCCCCCCCCCCCC(=O)OCC(COP(=O)(O)OCC(O)CO)OC(=O)CCCCCCCCCCCCCCCCC` (centres unmarked) [DSPG, distearoylphosphatidylglycerol], for which the “phase transition temperature (found value) of phospholipid” value amounted to 55 °C. As for `CCCCCCCCCCCCCC(=O)OCC(COP(=O)(O)OCCN)OC(=O)CCCCCCCCCCCCC` (centres unmarked) [DMPE, dimyristoylphosphatidylethanolamine], the “phase transition temperature (found value) of phospholipid” value worked out at 50 °C. Turning to `CCCCCCCCCCCCCCCC(=O)OC[C@H](COP(=O)([O-])OCC[N+](C)(C)C)OC(=O)CCCCCCCCCCCCC` [PMPC, palmitoylmyristoylphosphatidylcholine], the “phase transition temperature (found value) of phospholipid” value was determined as 27.2 °C. Take `CCCCCCCCCCCCCCCC(=O)OCC(COP(=O)(O)OCCN)OC(=O)CCCCCCCCCCCCCCC` (centres unmarked) [DPPE, dipalmitoylphosphatidylethanolamine]: the “phase transition temperature (found value) of phospholipid” value is 60 °C. Still for that read-out and setting: as for `CCCCCCCCCCCCCCCC(=O)OC[C@H](COP(=O)([O-])OCC[N+](C)(C)C)OC(=O)CCCCCCCCCCCCCCC` [DPPC, dipalmitoylphosphatidylcholine], the figure is 41.4 °C; as for `CCCCCCCCCCCCCCCCCC(=O)OCC(COP(=O)([O-])OCC[N+](C)(C)C)OC(=O)CCCCCCCCCCCCCCCCC` (centres unmarked) [DSPC, distearoylphosphatidylcholine], 54.9 °C; as for distearoylsphingomyelin [DSSM], 57 °C. In the case of `CCCCCCCCCCCCCCCC(=O)OCC(COP(=O)(O)OCC(N)C(=O)O)OC(=O)CCCCCCCCCCCCCCC` (centres unmarked) [DPPS, dipalmitoylphosphatidylserine], the “phase transition temperature (found value) of phospholipid” value came to 51 °C. Take `CCCCCCCCCCCCCCCC(=O)OCC(COP(=O)(O)OCC(O)CO)OC(=O)CCCCCCCCCCCCCCC` (centres unmarked) [DPPG, dipalmitoylphosphatidylglycerol]: the “phase transition temperature (found value) of phospholipid” value came to 41 °C.

As for dipalmitoylsphingomyelin [DPSM], the “phase transition temperature (found value) of phospholipid” value came out at 41 °C. On to `CCCCCCCCCCCCCCCCCC(=O)O[C@H](COC(=O)CCCCCCCCCCCCCCC)COP(=O)([O-])OCC[N+](C)(C)C` [PSPC, palmitoylstearoylphosphatidylcholine], for which the “phase transition temperature (found value) of phospholipid” value stood at 47.4 °C.
